In US4041111A, “Phosphonate monoesters and method of preparation” (Purdue Research Foundation, priority 1975, dated 1977):

Columns and labels:
[1] = biological target: T1, Type I phosphodiesterase, Bovine Intestine (Bos taurus, UniProt P15396); experiment: Activity of Type I phosphodiesterase, bovine intestine (Table VII); assay type: biochemical; details: 1 mM 4-nitrophenyl ester of the named compound
T1 construct: from tissue; host or cells: bovine intestine
T1 sequence (P15396 1-874): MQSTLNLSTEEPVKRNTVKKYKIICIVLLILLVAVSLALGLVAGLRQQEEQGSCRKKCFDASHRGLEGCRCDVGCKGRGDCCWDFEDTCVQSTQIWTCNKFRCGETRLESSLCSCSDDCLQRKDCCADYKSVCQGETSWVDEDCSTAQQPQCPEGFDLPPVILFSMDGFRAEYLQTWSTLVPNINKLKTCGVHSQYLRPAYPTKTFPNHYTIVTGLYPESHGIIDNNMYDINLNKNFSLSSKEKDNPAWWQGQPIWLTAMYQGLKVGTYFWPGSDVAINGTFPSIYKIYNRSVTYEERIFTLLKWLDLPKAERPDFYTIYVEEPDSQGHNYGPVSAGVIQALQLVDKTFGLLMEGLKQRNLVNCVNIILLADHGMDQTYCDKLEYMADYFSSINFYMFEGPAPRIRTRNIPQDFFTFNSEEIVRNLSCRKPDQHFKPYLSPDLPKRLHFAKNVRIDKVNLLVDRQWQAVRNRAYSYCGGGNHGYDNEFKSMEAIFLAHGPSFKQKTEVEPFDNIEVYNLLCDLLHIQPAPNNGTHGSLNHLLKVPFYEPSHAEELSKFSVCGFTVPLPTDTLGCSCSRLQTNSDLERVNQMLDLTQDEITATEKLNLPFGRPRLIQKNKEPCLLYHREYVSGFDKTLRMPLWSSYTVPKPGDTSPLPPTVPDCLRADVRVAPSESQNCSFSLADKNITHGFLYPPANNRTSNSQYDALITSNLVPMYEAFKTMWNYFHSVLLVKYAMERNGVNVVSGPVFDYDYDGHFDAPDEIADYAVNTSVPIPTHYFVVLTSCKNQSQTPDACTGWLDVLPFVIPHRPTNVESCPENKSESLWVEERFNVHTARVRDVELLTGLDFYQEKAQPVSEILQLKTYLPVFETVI
Experimental: (§1) Enzymic hydrolysis of 4-nitrophenyl esters is quantitated spectrophotometrically by the appearance of the 4-nitrophenolate ion at 400 nm (ε=18,320 M^-^1 cm^-1, pK 7.15) (see Kezdy, F. J. and Bender, M. L., 1962, Biochemistry, Volume 1, page 1097), either continuously above pH 7.0 or discontinuously by raising the assay mixture to pH 9 and inactivating the enzyme by the addition of two volumes of 1 M NaHCO3, 10 mM Na3 PO4, 10 mM Na2 EDTA. Standard assay conditions are 1 mM 4-nitrophenyl phenylphosphonate, 0.1 M Tris, pH 8.0, 30° C.
(§2) Table VII is a comparison of Type I and Type II Phosphodiesterase as follows:
(§3) Substrates were 1 mM solutions of the 4-nitrophenyl esters of the above

[2] = test system: Type I phosphodiesterase, Snake Venon; experiment: Activity of Type I phosphodiesterase, snake venom (Table VII); assay type: biochemical; details: 1 mM 4-nitrophenyl ester of the named compound
Experimental: as §1, §2, §3

[3] = test system: Type II phosphodiesterase, Bovine spleen; experiment: Activity of Type II phosphodiesterase, bovine spleen (Table VII); assay type: biochemical; details: 1 mM 4-nitrophenyl ester of the named compound
Experimental: as §1, §2, §3

[4] = biological target: T2, purified bovine intestinal phosphodiesterase (Bos taurus, UniProt P15396); experiment: Kinetic parameters of hydrolysis by purified phosphonate monoesterase/phosphodiesterase of calf intestinal mucosa (Table VI); assay type: biochemical, bovine (calf); details: 0.1 M Tris pH 8.0, 30° C., 4-nitrophenol measured continuously at 400 nm
T2 sequence (P15396 1-874): T1 sequence (P15396 1-874)
Experimental: as §1
^a Production of 4-nitrophenol was measured continuously at 400 nm in […]

[5] = Stability and water solubility of phosphonate monoesters

| Structure (SMILES) | Activity [1] | Activity [2] [nmoles min^-^1 mg^-^1] | Activity [3] [nmoles min^-^1 mg^-^1] | Vmax [4] [μmoles min^-^1 mg^-^1] | stability of solutions of the ammonium salt ([5]; concentrations to 0.1 M, 0°-4° C.) | stability as the dry ammonium salt ([5]; dry ammonium salt) | stability in solution compared with 4-nitrophenyl phosphate ([5]; in solution) |
| --- | --- | --- | --- | --- | --- | --- | --- |
| Cc1cn([C@H]2C[C@H](O)[C@@H](COP(=O)(O)Oc3ccc([N+](=O)[O-])cc3)O2)c(=O)[nH]c1=O [4-nitrophenyl 5'-TMP] | 65,700 nmoles min^-^1 mg^-^1 | 4570 | 6.9 | – | – | – | – |
| Cc1cn([C@H]2C[C@H](OP(=O)(O)Oc3ccc([N+](=O)[O-])cc3)[C@@H](CO)O2)c(=O)[nH]c1=O [4-nitrophenyl 3'-TMP] | 569 nmoles min^-^1 mg^-^1 | 1.9 | 168 | 1 | – | – | – |
| O=[N+]([O-])c1ccc(OP(=O)(O)c2ccccc2)cc1 [4-nitrophenyl phenylphosphonate] | – | – | – | – | stable in concentrations to 0.1 M for several weeks at 0°-4 °C | stable indefinitely as the dry ammonium salt | much more stable in solution than is 4-nitrophenyl phosphate |
